According to publication PMC2912403 (Journal of medicinal chemistry, 2010):
“Also recorded” adds a separate entry of the source.

What was measured:
[1] = tested on: κ agonist U50,488-induced diuresis; assay: Antagonism of U50,488-induced diuresis in rats; format: in vivo, male Sprague-Dawley rats; details: for antagonism of U50,488-induced diuresis (urine output), week 0: s.c., first 5 h after dosing, U50,488 10 mg/kg; for antagonism of U50,488-induced diuresis (urine output), week 1: single s.c. dose at week 0, no further dosing
[2] = tested on: κ agonist U50,488-induced diuresis; details: antagonism of U50,488-induced diuresis; cited from earlier work

| Compound | antagonism of U50,488-induced diuresis (urine output), week 0 [1] | antagonism of U50,488-induced diuresis (urine output), week 1 [1] | antagonism of the diuretic effects of U50,488 at individual doses ([1]; 10 and 30 mg/kg s.c., week 0, Dunnett's test vs U50,488) | duration of activity as antagonist of U50,488-induced diuresis ([1]; single s.c. dose) | duration of κ antagonist activity [2] |
| --- | --- | --- | --- | --- | --- |
| CC(C)[C@@H](CN1CC[C@@](C)(c2cccc(O)c2)[C@@H](C)C1)NC(=O)[C@H]1Cc2ccc(O)cc2CN1 [Compound 3, (3R)-7-Hydroxy-N-[(1S)-1-{[(3R,4R)-4-(3-hydroxyphenyl)-3,4-dimethyl-1-piperidinyl]methyl}-2-methylpropyl)-1,2,3,4-tetrahydro-3-isoquinolinecarboxamide, reference compound] | dose-related antagonism | continued to show dose-related antagonism |  |  |  |
| CC(C)[C@@H](CN1CC[C@@](C)(c2cccc(O)c2)[C@@H](C)C1)NC(=O)[C@@H]1CCc2cc(O)ccc2C1 [Compound 7a, 6-Hydroxy-1,2,3,4-tetrahydro-naphthalene-2(+)-carboxylic acid-{1-[4-(3-hydroxyphenyl)-(3R,4R)-trans-dimethyl-piperidinylmethyl]-(2S)-methylpropyl}amide] | antagonized selective κ agonist U50,488-induced diuresis; also recorded: dose-related antagonism | did not show any κ antagonist activity after one week; also recorded: antagonism of U50,488 could no longer be detected | significant antagonism | less than 1 week |  |
| Oc1ccc2c3c1O[C@H]1c4[nH]c5c(c4C[C@@]4(O)[C@@H](C2)N(CC2CC2)CC[C@]314)C[C@@]1(O)[C@H]2Cc3ccc(O)c4c3[C@@]1(CCN2CC1CC1)[C@H]5O4 [Compound 1, norBNI] |  |  |  |  | up to 3 weeks |
